pIC50: −log10 of the molar value.
The compounds below were run on calvaria (assay: Inhibition of bone resorption (45Ca release from calvaria stimulated with hPTH (1-34), method of Raisz)). Conditions: 45Ca release, 50 nM hPTH (1-34), 3 days incubation; test concentrations 0.04, 0.2 and 1 μM; mean of 4 pairs; read-out: IC50 (inhibition of bone resorption).
Assay type: cell-based, new born ICR mouse
Excerpt: The determination of the inhibitory action on the bone resorption was basically in accordance with the method of Raisz [J. Clin. Invest. vol.
A new born ICR mouse (one or two days old) was intraperitoneally administered with 1.5μ Ci ^45 Ca (isotope of calcium as CaCl2 solution) and calvaria was aseptically removed the next day. The calvaria was split into two along the central suture line, and one of them was used as a control and the other was used as a test compound. The calvaria was preincubated at 37° C. for 2 days in BGJb medium [0.5 ml, Fitton-Jackson modification, GIBCO Laboratories, USA, containing bovine serum albumin 1 mg/ml] added with a test compound to the concentrations of 0.04 μM, 0.2 μM and 1 μM and then in the above-mentioned medium containing 50 nM hPTH (1-34) for further 3 days. After the incubation, the ^45 Ca radioactivity in the medium and the bone was determined, and the proportion (%) of ^45 Ca released from the bone into the medium was calculated by the following formula.
Using the bone obtained from the same mouse and treated in the same manner without adding a test compound, as a control, the proportion (%) relative to the control group was determined according to the following formula.

Row | pIC50 | Structure (SMILES)
1 | 6.27 | Cc1nnc2n1-c1ccccc1C(c1ccc(Cl)cc1)=NN2Cc1cccnc1 [Example 98, 6-(4-Chlorophenyl)-1-methyl-4-(pyridin-3-ylmethyl)-4H-2,3,4,5,10b-pentaazabenz[e]azulene]

Same assay, conditions: Mus musculus, 72 h, read-out: IC50 (inhibition of bone resorption)

Row | Structure (SMILES) | pIC50
2 | C=C(Br)CN1N=C(c2ccc(Cl)cc2)c2ccccc2-n2c(C)nnc21 [Example 113, 4-(2-Bromo-2-propenyl)-6-(4-chlorophenyl)-1l-methyl-4H-2,3,4,5,10b-pentaazabenz[e]azulene] | 6.30
3 | Cc1nnc2n1-c1ccc(Cl)cc1C(c1ccccc1)=NN2Cc1ccncc1 [Example 126, 8-Chloro-1-methyl-6-phenyl-4-(pyridin-4-ylmethyl)-4H-2,3,4,5,10b-pentaazabenz[e]azulene] | 6.28

Same assay, conditions: Mus musculus, 72 h; 45Ca release, 50 nM hPTH (1-34), 3 days incubation; test concentrations 0.04, 0.2 and 1 μM; mean of 4 pairs; read-out: IC50 (inhibition of bone resorption)

Row | pIC50 | Structure (SMILES)
4 | 6.23 | Cc1nnc2n1-c1ccccc1C(c1ccc(Cl)cc1)=NN2Cc1ccc2c(c1)OCO2 [Example 81, 6-(4-Chlorophenyl)-1-methyl-4-(3,4-methylenedioxybenzyl)-4H-2,3,4,5,10b-pentaazabenz[e]azulene]
5 | 6.17 | COc1ccc(CN2N=C(c3ccc(Cl)cc3)c3ccccc3-n3c(C)nnc32)cc1[N+](=O)[O-] [Example 84, 6-(4-Chlorophenyl)-4-(4-methoxy-3-nitrobenzyl)-1-methyl-4H-2,3,4,5,10b-pentaazabenz[e]azulene]
6 | 6.07 | COc1ccc(CN2N=C(c3ccc(Cl)cc3)c3ccccc3-n3c(C)nnc32)cc1Cl [Example 85, 4-(3-Chloro-4-methoxybenzyl)-6-(4-chlorophenyl)-1-methyl-4H-2,3,4,5,10b-pentaazabenz[e]azulene]
7 | 6.23 | Cc1cccc(CN2N=C(c3ccc(Cl)cc3)c3ccccc3-n3c(C)nnc32)c1 [Example 88, 6-(4-Chlorophenyl)-1-methyl-4-(3-methylbenzyl)-4H-2,3,4,5,10b-pentaazabenz[e]azulene]
8 | 6.25 | Cc1nnc2n1-c1ccccc1C(c1ccc(Cl)cc1)=NN2Cc1ccccc1 [Example 94, 4-Benzyl-6-(4-chlorophenyl)-1-methyl-4H-2,3,4,5,10b-pentaazabenz[e]azulene]
9 | 6.15 | Cc1nc(CN2N=C(c3ccc(Cl)cc3)c3ccccc3-n3c(C)nnc32)cs1 [Example 100, 6-(4-Chlorophenyl)-4-(2-methyl-1,3-thiazol-4-ylmethyl)-1-methyl-4H-2,3,4,5,10b-pentaazabenz[e]azulene]
10 | 6.08 | Cc1nnc2n1-c1ccccc1C(c1ccc(Cl)cc1)=NN2CC1CC1 [Example 106, 6-(4-Chlorophenyl)-4-cyclopropylmethyl-1-methyl-4H-2,3,4,5,10b-pentaazabenz[e]azulene]
11 | 6.29 | C=C(C)CN1N=C(c2ccc(Cl)cc2)c2ccccc2-n2c(C)nnc21 [Example 111, 6-(4-Chlorophenyl)-1-methyl-4-(2-methyl-2-propenyl)-4H-2,3,4,5,10b-pentaazabenz[e]azulene]
12 | 6.42 | C=C(Cl)CN1N=C(c2ccc(Cl)cc2)c2ccccc2-n2c(C)nnc21 [Example 112, 6-(4-Chlorophenyl)-4-(2-chloro-2-propenyl)-1l-methyl-4H-2,3,4,5,10b-pentaazabenz[e]azulene]
13 | 6.66 | Cc1nnc2n1-c1ccccc1C(c1ccc(Cl)cc1)=NN2Cc1ccncc1 [Example 120, 6(4-Chlorophenyl)-1-methyl-4-(pyridin-4-ylmethyl)-4H-2,3,4,5,10b-pentaazabenz[e]azulene]
14 | 6.85 | Cc1nnc2n1-c1ccccc1C(c1ccc(Cl)cc1)=NN2Cc1ccc(S(C)(=O)=O)cc1 [Example 121, 6-(4-Chlorophenyl)-1-methyl-4-(4-methylsulfonylbenzyl)-4H-2,3,4,5,10b-pentaazabenz[e]azulene]
15 | 6.14 | Cc1nnc2n1-c1ccccc1C(c1ccc(Cl)cc1)=NN2Cc1ccc([N+](=O)[O-])cc1 [Example 122, 6-(4-Chlorophenyl)-1-methyl-4-(4-nitrobenzyl)-4H-2,3,4,5,10b-pentaazabenz[e]azulene]
16 | 6.19 | Cc1nnc2n1-c1ccccc1C(c1ccc(Cl)cc1)=NN2Cc1cc(Cl)nc(Cl)c1 [Example 123, 6-(4-Chlorophenyl)-4-(2,6-dichloropyridin-4-ylmethyl)-1-methyl-4H-2,3,4,5,10b-pentaazabenz[e]azulene]
17 | 6.03 | Cc1nnc2n1-c1ccccc1C(c1ccccc1)=NN2Cc1cccnc1 [Example 128, 1-Methyl-6-phenyl-4-(pyridin-3-ylmethyl)-4H-2,3,4,5,10b-pentaazabenz[e]azulene]
18 | 6.11 | Cc1nnc2n1-c1ccccc1C(c1ccccc1)=NN2Cc1ccncc1 [Example 129, 1-Methyl-6-phenyl-4-(pyridin-4-ylmethyl)-4H-2,3,4,5,10b-pentaazabenz[e]azulene]
19 | 6.74 | Cc1nnc2n1-c1ccc([N+](=O)[O-])cc1C(c1ccccc1)=NN2Cc1ccncc1 [Example 134, 1-Methyl-8-nitro-6-phenyl-4-(pyridin-4-ylmethyl)-4H-2,3,4,5,10b-pentaazabenz[e]azulene]
20 | 6.39 | Cc1ccc(C2=NN(Cc3ccncc3)c3nnc(C)n3-c3ccccc32)cc1 [Example 135, 1-Methyl-6-(4-methylphenyl)-4-(pyridin-4-ylmethyl)-4H-2,3,4,5,10b-pentaazabenz[e]azulene]
21 | 6.23 | Cc1ccc(C2=NN(Cc3cccc(C#N)c3)c3nnc(C)n3-c3ccccc32)cc1 [Example 136, 4-(3-Cyanobenzyl)-1-methyl-6-(4-methylphenyl)-4H-2,3,4,5,10b-pentaazabenz [e]azulene]
22 | 7.74 | Cc1sc2c(c1C)C(c1ccc(Cl)cc1)=NN(Cc1cccnc1)c1nnc(C)n1-2 [Example 139, 4-(4-Chlorophenyl)-2,3,9-trimethyl-6-(pyridin-3-ylmethyl)-6H-5,6,7,8,9a-pentaazathien[2,3-e]azulene]
23 | 7.30 | Cc1sc2c(c1C)C(c1ccc(Cl)cc1)=NN(Cc1ccncc1)c1nnc(C)n1-2 [Example 140, 4-(4-Chlorophenyl)-2,3,9-trimethyl-6-(pyridin-4-ylmethyl)-6H-5,6,7,8,9a-pentaazathien[2,3-e]azulene]
24 | 6.17 | CCc1cc2c(s1)-n1c(C)nnc1N(Cc1cccnc1)N=C2c1ccc(Cl)cc1 [Example 141, 4-(4-Chlorophenyl)-2-ethyl-9-methyl-6-(pyridin-3-ylmethyl)-6H-5,6,7,8,9a-pentaazathien[2,3-e]azulene]
25 | 6.35 | CCc1cc2c(s1)-n1c(C)nnc1N(Cc1ccncc1)N=C2c1ccc(Cl)cc1 [Example 142, 4-(4-Chlorophenyl)-2-ethyl-9-methyl-6-(pyridin-4-ylmethyl)-6H-5,6,7,8,9a-pentaazathien[2,3-e]azulene]
26 | 6.47 | Cc1cc2c(s1)-n1c(C)nnc1N(Cc1cccnc1)N=C2c1ccccc1 [Example 143, 2,9-Dimethyl-4-phenyl-6-(pyridin-3-ylmethyl)-6H-5,6,7,8,9a-pentaazathien[2,3-e]azulene]
27 | 6.57 | Cc1cc2c(s1)-n1c(C)nnc1N(Cc1ccncc1)N=C2c1ccccc1 [Example 144, 2,9-Dimethyl-4-phenyl-6-(pyridin-4-ylmethyl)-6H-5,6,7,8,9a-pentaazathien[2,3-e]azulene]
28 | 6.92 | Cc1sc2c(c1C)C(c1ccccc1)=NN(Cc1cccnc1)c1nnc(C)n1-2 [Example 145, 2,3,9-Trimethyl-4-phenyl-6-(pyridin-3-ylmethyl)-6H-5,6,7,8,9a-pentaazathien[2,3-e]azulene]

— US5807850A, “Therapeutic agent for osteoporosis and triazepine compound” (Japan Tobacco, Inc., priority 1994, dated 1998)
